Where a name gives a salt, the structure may show the parent alone. Read-outs that look alike come from different tables or passages of the source.
How the values were obtained:
FAAH = target: T1, FAAH (Homo sapiens, UniProt O00519); assay: Assay Method 1: FAAH assay, 3H-anandamide hydrolysis in homogenate of T84 cells or SK-N-MC cells transfected with human FAAH
T1 sequence (O00519 1-579): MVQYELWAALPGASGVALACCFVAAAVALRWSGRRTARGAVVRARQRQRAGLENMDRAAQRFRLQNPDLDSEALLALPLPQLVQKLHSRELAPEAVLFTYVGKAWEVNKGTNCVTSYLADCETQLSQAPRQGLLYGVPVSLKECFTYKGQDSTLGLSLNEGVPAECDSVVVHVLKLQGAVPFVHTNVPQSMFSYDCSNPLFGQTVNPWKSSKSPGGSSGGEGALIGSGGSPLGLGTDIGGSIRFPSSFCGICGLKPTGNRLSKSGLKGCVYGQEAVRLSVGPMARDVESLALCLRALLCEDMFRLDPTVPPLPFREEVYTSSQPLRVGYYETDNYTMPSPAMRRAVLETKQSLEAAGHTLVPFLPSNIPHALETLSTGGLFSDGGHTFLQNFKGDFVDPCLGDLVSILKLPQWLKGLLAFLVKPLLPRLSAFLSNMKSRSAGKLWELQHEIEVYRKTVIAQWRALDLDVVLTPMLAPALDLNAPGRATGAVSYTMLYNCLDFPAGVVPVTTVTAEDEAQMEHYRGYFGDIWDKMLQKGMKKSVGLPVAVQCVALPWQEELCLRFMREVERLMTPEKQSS

Rat FAAH-1 = target: T2, Rat FAAH-1 (Rattus norvegicus, UniProt P97612); assay: Assay Method 2: rat FAAH-1 assay, 3H-anandamide hydrolysis in homogenate of SK-N-MC cells transfected with rat FAAH
T2 sequence (P97612 1-579): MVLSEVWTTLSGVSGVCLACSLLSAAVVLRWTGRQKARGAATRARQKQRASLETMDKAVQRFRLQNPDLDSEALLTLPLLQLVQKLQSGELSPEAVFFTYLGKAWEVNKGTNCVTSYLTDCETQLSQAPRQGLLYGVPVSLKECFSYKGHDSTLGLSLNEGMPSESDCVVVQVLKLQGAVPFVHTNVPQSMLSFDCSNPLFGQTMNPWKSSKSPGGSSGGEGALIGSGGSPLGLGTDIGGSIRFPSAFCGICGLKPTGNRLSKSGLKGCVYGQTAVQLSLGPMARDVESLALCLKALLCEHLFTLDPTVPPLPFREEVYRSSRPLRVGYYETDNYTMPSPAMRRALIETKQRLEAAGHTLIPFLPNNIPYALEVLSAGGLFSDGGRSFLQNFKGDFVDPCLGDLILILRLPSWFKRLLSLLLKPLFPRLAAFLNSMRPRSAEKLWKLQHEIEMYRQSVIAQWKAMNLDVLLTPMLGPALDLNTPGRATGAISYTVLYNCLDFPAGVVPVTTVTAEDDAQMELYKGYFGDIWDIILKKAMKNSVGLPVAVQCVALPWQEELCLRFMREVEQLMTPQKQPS
Protocol: The assay mixture consisted of 50 μL of the cell homogenate, 10 μL of the test compound, and 40 μL of anandamide [1-^3H-ethanolamine] (^3H-AEA, Perkin-Elmer, 10.3 Ci/mmol), which was added last, for a final tracer concentration of 80 nM. The reaction mixture was incubated at rt for 1 h. During the incubation, 96-well Multiscreen filter plates (catalog number MAFCNOB50; Millipore, Bedford, Mass., USA) were loaded with 25 μL of activated charcoal (Multiscreen column loader, catalog number MACL09625, Millipore) and washed once with 100 μL of MeOH. […] After the 1 h incubation, 60 μL of the reaction mixture were transferred to the charcoal plates, which were then assembled on top of the DYNEX plates using Centrifuge Alignment Frames (catalog number MACF09604, Millipore). The unbound labeled ethanolamine was centrifuged through to the bottom plate (5 min at 2000 rpm), which was preloaded with the scintillant, as described above. The plates were sealed and left at rt for 1 h before counting on a Hewlett Packard TopCount.

[1] = read-out: Assay 1 IC50, Table 2, Comparative Examples, human FAAH

Row | IC50 (FAAH) | IC50 (Rat FAAH-1) | IC50 (FAAH; [1]) | Structure (SMILES)
1 | 765 nM | > 10000 nM | – | O[C@@H](CNc1cc(-c2ccc3cc[nH]c3c2)ncn1)c1ccccc1 [Example 53, (1R)-2-{[6-(1H-Indol-6-yl)pyrimidin-4-yl]amino}-1-phenylethanol trifluoroacetic acid salt]
2 | 60 nM | 270 nM | – | Cc1nc(NC[C@H](O)c2ccccc2)cc(-c2ccc(Cl)c(Cl)c2)n1 [Example 155, (1R)-2-{[6-(3,4-Dichlorophenyl)-2-methylpyrimidin-4-yl]amino}-1-phenylethanol]
3 | > 10000 nM | > 10000 nM | – | OC(CNc1cc(-c2cc(C(F)(F)F)cc(C(F)(F)F)c2)ncn1)c1ccccc1 (centres unmarked) [Example 239, 2-[6-(3,5-Bis-trifluoromethyl-phenyl)-pyrimidin-4-ylamino]-1-phenyl-ethanol]
4 | 43 nM | 180 nM | – | CCCOc1ccc(-c2cc(NC[C@H](O)c3ccccc3)ncn2)cc1F [Example 35, (1R)-2-{[6-(3-Fluoro-4-propoxyphenyl)pyrimidin-4-yl]amino}-1-Phenylethanol trifluoroacetic acid salt]
5 | 1200 nM | 1000 nM | – | OC(CNc1cc(-c2ccc(OC(F)(F)F)cc2)ncn1)c1cc(Cl)cc(Cl)c1 (centres unmarked) [Example 126, 1-(3,5-Dichlorophenyl)-2-[(6-{4-[(trifluoromethyl)oxy]phenyl}-pyrimidin-4-yl)amino]ethanol]
6 | 28 nM | 538 nM | – | CC(C)(C)c1ccc(-c2cc(NCC(O)c3ccccc3)ncn2)cc1 (centres unmarked) [Example 224, 2-({6-[4-(1,1-Dimethylethyl)phenyl]pyrimidin-4-yl}amino)-1-phenylethanol]
7 | 24 nM | 120 nM | – | O[C@@H](CNc1cc(-c2ccc(Cl)c(F)c2)ncn1)c1ccccc1 [Example 27, (1R)-2-{[6-(4-Chloro-3-fluorophenyl)pyrimidin-4-yl]amino}-1-phenylethanol trifluoroacetic acid salt]
8 | 700 nM | – | – | OC(CNc1cc(-c2ccc(OC(F)(F)F)cc2)ncn1)c1ccccn1 (centres unmarked) [Example 123, 1-Pyridin-2-yl-2-[(6-{4-[(trifluoromethyl)oxy]phenyl}pyrimidin-4-yl)amino]ethanol]
9 | 5000 nM | – | – | Oc1ccc(C(O)CNc2cc(-c3ccc(OC(F)(F)F)cc3)ncn2)cc1 (centres unmarked) [Example 110, 4-{1-Hydroxy-2-[(6-{4-[(trifluoromethyl)oxy]phenyl}pyrimidin-4-yl)amino]ethyl}phenol]
10 | 850 nM | – | – | CCCOc1cccc(-c2cc(NC[C@H](O)c3ccccc3)ncn2)c1 [Example 98, (1R)-1-Phenyl-2-{[6-(3-propoxyphenyl)pyrimidin-4-yl]amino}ethanol]
11 | 205 nM | – | – | COc1ccc(-c2cc(NCC(O)c3ccccc3)ncn2)cc1 (centres unmarked) [Example 147, 2-({6-[4-(Methyloxy)phenyl]pyrimidin-4-yl}amino)-1-phenylethanol]
12 | 1400 nM | – | – | Cc1cc(-c2cc(NC[C@H](O)c3ccccc3)ncn2)cc(C)c1OC(C)C [Example 52, (1R)-2-({6-[3,5-Dimethyl-4-(1-methylethoxy)phenyl]pyrimidin-4-yl}amino)-1-phenylethanol trifluoroacetic acid salt]
13 | – | – | > 10000 nM | Nc1cccc(-c2cc(NCC(O)c3ccccc3)ncn2)c1 (centres unmarked) [CE8, 2-[6-(3-Amino-phenyl)-pyrimidin-4-ylamino]-1-phenyl-ethanol, reference compound]
14 | – | – | > 10000 nM | OC(CNc1cc(-c2ccccc2)ncn1)c1ccccc1 (centres unmarked) [CE3, 1-Phenyl-2-(6-phenyl-pyrimidin-4-ylamino)-ethanol, reference compound]
15 | 65 nM | – | – | CCOc1ccc(-c2cc(NC[C@H](O)c3ccccc3)ncn2)c(C)c1 [Example 154, (1R)-2-{[6-(4-Ethoxy-2-methylphenyl)pyrimidin-4-yl]amino}-1-phenylethanol trifluoroacetic acid salt]
16 | – | 580 nM | – | O[C@@H](CNc1cc(-c2ccc(C(F)(F)F)c(Cl)c2)nc(N2CCC2)n1)c1ccccc1 [Example 161, (1R)-2-({2-Azetidin-1-yl-6-[3-chloro-4-(trifluoromethyl)phenyl]pyrimidin-4-yl}amino)-1-Phenylethanol trifluoroacetic acid salt]
17 | 5000 nM | – | – | O=Cc1cccc(-c2cc(NC[C@H](O)c3ccccc3)ncn2)c1 [Example 23, 3-(6-{[(2R)-2-Hydroxy-2-phenylethyl]amino}pyrimidin-4-yl)benzaldehyde]

Row | IC50 (FAAH) | IC50 (Rat FAAH-1) | IC50 (FAAH; [1]) | Structure (SMILES)
18 | 101 nM | – | – | O[C@@H](CNc1cc(-c2cnn(Cc3ccccc3)c2)ncn1)c1ccccc1 [Example 74, (1R)-2-{[6-(1-Benzyl-1H-pyrazol-4-yl)pyrimidin-4-yl]amino}-1-phenylethanol]
19 | 35 nM | – | – | OC(CNc1cc(-c2ccc(Oc3ccccc3)cc2)ncn1)c1ccccc1 (centres unmarked) [Example 13, 1-Phenyl-2-({6-[4-(phenyloxy)phenyl]pyrimidin-4-yl}amino)ethanol]
20 | 3000 nM | – | – | CC(O)(CNc1cc(-c2ccc(C(F)(F)F)c(Cl)c2)ncn1)c1ccccc1 (centres unmarked) [Example 166, 1-({6-[3-Chloro-4-(trifluoromethyl)phenyl]pyrimidin-4-yl}amino)-2-Phenylpropan-2-ol]
21 | > 10000 nM | – | – | Nc1cccc(-c2cc(NCC(O)c3ccccc3)ncn2)c1 (centres unmarked) [Example 240, 2-[6-(3-Amino-phenyl)-pyrimidin-4-ylamino]-1-phenyl-ethanol]
22 | 3000 nM | – | – | Cc1cccc(-c2cc(NCC(O)c3ccccc3)ncn2)c1 (centres unmarked) [Example 148, 2-{[6-(3-Methylphenyl)pyrimidin-4-yl]amino}-1-phenylethanol]
23 | 2000 nM | – | – | C[S+]([O-])c1nc(NC[C@H](O)c2ccccc2)cc(-c2ccc(C(F)(F)F)c(Cl)c2)n1 (stereo partly drawn) [Example 139, (1R)-2-({6-[3-Chloro-4-(trifluoromethyl)phenyl]-2-(methylsulfinyl)pyrimidin-4-yl}amino)-1-phenylethanol]
24 | 20 nM | – | – | O=S(=O)(NC1CC1)c1ccc(-c2cc(NC[C@H](O)c3ccccc3)ncn2)cc1 [Example 67, N-Cyclopropyl-4-(6-{[(2R)-2-hydroxy-2-phenylethyl]amino}pyrimidin-4-yl)benzenesulfonamide]
25 | 580 nM | – | – | CCOc1cccc(-c2cc(NC[C@H](O)c3ccccc3)ncn2)c1 [Example 97, (1R)-2-{[6-(3-Ethoxyphenyl)pyrimidin-4-yl]amino}-1-phenylethanol]
26 | 408 nM | – | – | COc1ccc(-c2cc(NCC(O)c3ccccc3)ncn2)cc1OC (centres unmarked) [Example 229, 2-[6-(3,4-Dimethoxy-phenyl)-pyrimidin-4-ylamino]-1-phenyl-ethanol]
27 | 303 nM | – | – | COc1cc(OC(F)(F)F)ccc1-c1cc(NC[C@H](O)c2ccccc2)ncn1 [Example 153, (1R)-2-({6-[2-Methoxy-4-(trifluoromethoxy)phenyl]pyrimidin-4-yl}amino)-1-phenylethanol trifluoroacetic acid salt]
28 | 412 nM | – | – | OC(CNc1cc(-c2cccc(OC(F)(F)F)c2)ncn1)c1ccccc1 (centres unmarked) [Example 149, 1-Phenyl-2-[(6-{3-[(trifluoromethyl)oxy]phenyl}pyrimidin-4-yl)amino]ethanol]
29 | 390 nM | – | – | O[C@@H](CNc1cc(-c2cccc(OCC(F)(F)F)c2)ncn1)c1ccccc1 [Example 25, (1R)-1-Phenyl-2-[(6-{3-[(2,2,2-trifluoroethyl)oxy]phenyl}pyrimidin-4-yl)amino]ethanol]
30 | 371 nM | – | – | CS(=O)(=O)c1nc(NC[C@H](O)c2ccccc2)cc(-c2ccc(C(F)(F)F)c(Cl)c2)n1 [Example 138, (1R)-2-({6-[3-Chloro-4-(trifluoromethyl)phenyl]-2-(methylsulfonyl)pyrimidin-4-yl}amino)-1-phenylethanol]
31 | 467 nM | – | – | OC(CNc1cc(-c2cccc(Cl)c2)ncn1)c1ccccc1 (centres unmarked) [Example 9, 2-{[6-(3-Chlorophenyl)pyrimidin-4-yl]amino}-1-Phenylethanol]
32 | – | > 10000 nM | – | Cc1cc(-c2cc(NC[C@H](O)c3ccccc3)ncn2)cnc1F [Example 75, (1R)-2-{[6-(6-Fluoro-5-methylpyridin-3-yl)pyrimidin-4-yl]amino}-1-phenylethanol]
33 | > 10000 nM | – | – | OC(CNc1cc(-c2ccccc2)ncn1)c1ccccc1 (centres unmarked) [Example 243, 1-Phenyl-2-(6-phenyl-pyrimidin-4-ylamino)-ethanol]

Row | Structure (SMILES) | IC50 (FAAH) | IC50 (Rat FAAH-1) | IC50 (FAAH; [1])
34 | CCCCOc1ccc(-c2cc(NC[C@H](O)c3ccccc3)ncn2)cc1 [Example 34, (1R)-2-{[6-(4-Butoxyphenyl)pyrimidin-4-yl]amino}-1-phenylethanol trifluoroacetic acid salt] | 500 nM | – | –
